From US7169290B1, “Biosensor for metal analysis and speciation” (Battelle Energy Alliance, LLC, priority 2002, dated 2007)

Assays:
Type in all cases: biochemical
[1] = target: T1, purified A. niger NR (E.C. 1.6.6.2) (Aspergillus niger, UniProt P36858); assay: Evaluation of buffer-metal interactions, NR activity by rate of NADPH disappearance; details: 5 μM metal; for NR sensitivity to metal in TRIS buffered system: 30 mM TRIS buffer pH 7.5; for NR sensitivity to metal in phosphate buffered system: 30 mM phosphate buffer pH 7.5
T1 construct: purchased Sigma-Aldrich Co. (St. Louis, Mo.)
T1 sequence (P36858 1-867): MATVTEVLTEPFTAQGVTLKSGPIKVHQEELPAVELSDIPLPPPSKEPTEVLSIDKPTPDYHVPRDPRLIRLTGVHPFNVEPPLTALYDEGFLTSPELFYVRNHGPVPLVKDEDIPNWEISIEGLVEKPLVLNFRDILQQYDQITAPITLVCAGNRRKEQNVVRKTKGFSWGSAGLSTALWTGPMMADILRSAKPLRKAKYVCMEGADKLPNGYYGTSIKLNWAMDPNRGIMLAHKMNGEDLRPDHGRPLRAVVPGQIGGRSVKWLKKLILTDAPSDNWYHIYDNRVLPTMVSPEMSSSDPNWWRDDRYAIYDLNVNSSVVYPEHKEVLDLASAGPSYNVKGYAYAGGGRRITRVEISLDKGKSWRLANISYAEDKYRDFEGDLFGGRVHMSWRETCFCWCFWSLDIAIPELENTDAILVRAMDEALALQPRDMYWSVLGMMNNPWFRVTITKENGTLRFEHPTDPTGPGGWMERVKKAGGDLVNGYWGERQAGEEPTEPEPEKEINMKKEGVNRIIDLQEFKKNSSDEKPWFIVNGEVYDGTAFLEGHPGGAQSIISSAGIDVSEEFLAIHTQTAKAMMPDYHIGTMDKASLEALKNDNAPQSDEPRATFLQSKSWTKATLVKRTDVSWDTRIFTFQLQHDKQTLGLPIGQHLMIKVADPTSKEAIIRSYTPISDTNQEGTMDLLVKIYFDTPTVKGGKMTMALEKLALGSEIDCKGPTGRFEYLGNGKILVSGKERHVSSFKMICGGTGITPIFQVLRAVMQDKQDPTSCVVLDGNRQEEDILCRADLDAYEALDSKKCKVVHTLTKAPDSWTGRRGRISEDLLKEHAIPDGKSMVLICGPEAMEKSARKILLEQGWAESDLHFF
Procedure: To determine the buffer that would provide minimal metal-buffer complexation and, therefore, allow maximal metal inhibition to NR activity, an analysis of various pH buffers was performed. HEPES, MOPS, PIPES, phosphate, and TRIS buffers were individually evaluated in the presence of NR and 5 μM of each of the following metals: Cr^3+, Cr^6+, Cd^2+, Cu^2+, Pb^2+, and Zn^2+. An unbuffered assay system was used to establish a baseline of metal-induced enzyme inhibition. Reagents were added in the following order: the metal stock solution, the buffer solution, KNO3 solution, NR, and NADPH.
For these buffer experiments, NR and NADPH solutions were prepared in water rather than in the 30 mM MOPS, as was done for all other experiments. The final concentration of all reagents was 30 mM of each respective buffer, 5 μM metal, 50 μg ml^−1 NR, 10 mM KNO3 and 0.1 mM NADPH. NADPH addition initiated the reaction but NR activity was determined following the method described in Gilliam et al., Anal. Biochem., 212:359–365 (1993), which is based on the rate of NADPH disappearance. The presence of NADPH, which has a peak absorbance at 340 nm, was monitored with respect to time for 3 minutes using a Hewlett Packard 8452A UV-Vis spectrophotometer. NR activity was then reported as a ratio of the change in absorbance of a metal-containing sample to the change in absorbance of a positive (metal-free) control. The inherent instability of NADPH and the potential for oxidation in the presence of the metals used in these experiments was accounted for in negative controls, which contained all reagents but NR.
To select a buffering system that allowed for maximum inhibition of the enzyme by metal ions, several common buffers, HEPES, MOPS, PIPES, Phosphate and TRIS were tested in metal inhibition assays. The buffers used in the assay affected the sensitivity of NR to the metal ions examined due to some of the buffers' ability to chelate metal ions, as shown in FIG. 1. NR activity is reported as the percent of a metal free control. Values represent the averages of five replicate experiments. NR activity assays were also run in an unbuffered water system to establish a baseline level of metal sensitivity and to determine if the buffers were shielding NR from inhibition by any of the metals that were examined. An unbuffered assay system was not selected for further experiments because the pH was not uniformly maintained for the various conditions under which NR activity would be measured. […] Therefore, MOPS was chosen for use in subsequent metal inhibition assays over a wider range of metal concentrations. The phosphate and TRIS buffers appeared to selectively protect NR against different metals. […] The opposite was found when the assay was conducted in a TRIS buffered system where NR was insensitive to Cu^2+ ions and was inhibited by Cd^2+, Cr^6+, Pb^2+, and Zn^2+.

[2] = target: T1, purified A. niger NR (E.C. 1.6.6.2); assay: Regeneration of metal inactivated NR activity by 10 mM EDTA; details: for NR activity after EDTA treatment, % of control: 100 μM metal five minutes, then 10 mM EDTA; for restoration of NR activity by EDTA after metal exposure / NR activity before EDTA treatment, % of control: 100 μM metal; for restoration of NR activity by EDTA after metal exposure: 10 mM EDTA; for NR activity before EDTA treatment, % of control: five minutes, 25° C., 10 mM KNO3
Procedure: To determine whether inhibition caused by exposure to the metals could be reversed by the addition of EDTA, NR was exposed to 100 μM of the following metals: Cd^2+, Cr^3+, Cu^2+, Pb^2+ and Zn^2+ for five minutes in a 96-well plate and incubated at 25° C. with 10 mM KNO3. After five minutes, 10 mM EDTA was added and solutions were shaken for 10 seconds. NADPH was added to sets of positive controls, negative controls, and metal/NR and EDTA for evaluation of NR activity both immediately after EDTA addition and 30 minutes after EDTA addition. Enzyme activity was measured by determining the amount of nitrite produced and reported as a percent of a positive control.

[3] = target: T1, purified A. niger NR (E.C. 1.6.6.2); assay: Metal inhibition of NR activity, colorimetric nitrite production (Griess reaction), MOPS buffer; details: for enzyme inhibition: 1 μM metal ion; for enzyme inhibition / span of concentrations over which NR activity is inhibited: MOPS buffer; for span of concentrations over which NR activity is inhibited: no chelating agent
Procedure: NR activity was measured using the Griess reaction in which nitrite is colorimetrically determined by diazotization and diazomium coupling reactions of nitrite with sulfanilamide and N-(1-naphthyl)ethylenediamine. Measurements were conducted in 96-well microtiter plates, allowing multiple reactions to be quantified simultaneously. The assay followed the method as described in R. Kneer et al., Phytochemistry, 31:2663–2667 (1992), with modifications including the adaptation for use in a 96-well plate format, the reduction of the assay time to 5 minutes, and the substitution of a 12.5 mM MOPS buffer instead of the 33 mM TRIS buffer used.
This was followed by the addition of 40 μl 0.2% (wt.) N-(1-naphthyl)ethylenediamine. The absorbance of the resulting pink solution read at 540 nm was recorded after ten minutes using a microplate reader (HTS7000 Plus Bioassay Reader, Perkin Elmer, Conn.).
Negative controls containing all reagents except NR were run and analyzed for nitrite. An activity of 100% indicated the rate of nitrate conversion in the absence of Cr(III). Positive controls, which comprised no metal but comprised all other reagents, were also run. Additional controls comprising nitrite, NR and NADPH were run to rule out the possibility that NR reduced the nitrite.
NR activity is reported as a percentage of the experimentally measured activity of the positive (metal-free) control or as a ratio of the change in absorbance of a metal-containing sample to the change in absorbance of a positive (metal-free) control. An activity of 100% indicated the rate of nitrate conversion in the absence of the metal. Data points represent the averages of seven replicate experiments and error bars represent the standard deviation of those averages, unless otherwise stated.
NR, NADPH, and KNO3 were used in the same concentrations as in the metal-free NR and buffer evaluation assays. For metal-inhibition studies in the absence of a chelating agent, the appropriate concentration of metal stock solution was added to the NR and KNO3 solution. The mixture was allowed to incubate at 25° C. for five minutes prior to the addition of NADPH to allow adequate time for the metal and NR to interact. A 12.5 mM MOPS buffer solution was used to maintain the pH at 7.5. Final metal concentrations in the assay solution ranged from 0.01 μM to 1000 μM. Enzyme activity was determined as described above by the calorimetric quantification of nitrite production and reported as a percentage of the nitrite produced in a metal-free control.
The sensitivity of NR to Cr(III) was determined at concentrations ranging from 1 to 10 μM. […] To further determine the extent to which NR was sensitive to metals in aqueous samples, the activity of purified NR was evaluated in the presence of Cd^2+, Cu^2+, Cr^3+, Cr^6+, Ni^2+, Pb^2+, and Zn^2+ ions at concentrations ranging from 0.01 to 1000 μM.

[4] = target: T1, purified A. niger NR (E.C. 1.6.6.2); assay: EDTA and NTA chelation experiments, NR activity by nitrite production; details: for effect of EDTA on the metal's ability to inhibit NR: EDTA 0.1 to 10 mM
Procedure: To determine the ability of chelating agents to prevent NR inhibition, EDTA or NTA was added to the enzymatic assay. For the experiments in which either EDTA or NTA was used, the reagents were added in the following order: the appropriate metal solution, EDTA or NTA, NR, nitrate, and finally NADPH. To allow sufficient time for the metal and chelating agent to react, the metal and either EDTA or NTA were added together prior to the addition of NR. Final assay metal ion concentrations ranged from 0.01 to 1000 μM. EDTA and NTA had final concentrations of 0.1 mM, 1 mM and 10 mM. Final concentrations of NR, KNO3 and NADPH were as described above. NR activity was assayed by monitoring the production of nitrite, as described above.

[5] = 12.5 mM MOPS pH 7.5, no chelating agent

Row | SMILES | NR sensitivity to metal in TRIS buffered system [1] | NR sensitivity to metal in phosphate buffered system [1] | NR activity after EDTA treatment, % of control [2] | restoration of NR activity by EDTA after metal exposure [2] | NR activity before EDTA treatment, % of control [2] | enzyme inhibition [3] | metal concentration at which NR activity was substantially inhibited [3, 5] | metal concentration at which NR activity was substantially inhibited ([3]; 12.5 mM MOPS pH 7.5, no chelating agent, listed as Cr^6+) | span of concentrations over which NR activity is inhibited [3] | effect of NTA on the inhibitory effects of the metal ([4]; 1 mM NTA) | increase of the concentration range over which the metal inhibited NR ([4]; 10 mM EDTA) | metal concentration up to which EDTA protected NR activity ([4]; 10 mM EDTA) | protection of NR by NTA from exposure to the metal ([4]; 10 mM NTA) | effect of EDTA on the metal's ability to inhibit NR ([4]; listed as Cr(VI)) | effect of EDTA on the metal's ability to inhibit NR ([4]; listed as Cr^6+) | NTA concentration up to which the metal's inhibitory effects on NR activity were not affected ([4]; NTA added to assay) | metal concentrations over which NTA protected NR from metal induced inhibition ([4]; 10 mM NTA) | NR activity retained, percent of original activity (metal free control) ([3]; 1000 μM metal ion, 12.5 mM MOPS pH 7.5) | metal concentration at which NR activity was inhibited / adversely affected [3, 5]
1 | [Cd+2] [Cd^2+, cadmium] | inhibited | relatively insensitive | 28% ± | partially restored | 2.7% ± |  |  |  |  |  |  |  |  |  |  |  |  |  | 
2 | [Cr+3] [Cr^3+, chromium] | inhibited | relatively insensitive | 4.3% ± 1.9% | unable to significantly restore | 5.7% ± 10% | 62% | above 4 μM | 1 µM | several orders of magnitude | did not affect | two orders of magnitude | up to 100 μM | did not protect | unchanged | virtually unaffected | up to 10 mM |  |  | 
3 | [Cu+2] [Cu^2+, copper] | insensitive | inhibited | 5.1% ± 1.5% | unable to significantly restore | 1.0% ± 0.3% | 76% | 1 µM |  | several orders of magnitude |  |  |  |  |  |  |  | up to 100 μM |  | 
4 | [Ni+2] [Ni^2+, nickel] |  |  |  |  |  |  |  |  |  |  |  |  |  |  |  |  |  | ~20% | over 100 μM
5 | [Pb+2] [Pb^2+, lead] | inhibited | relatively insensitive | 40% ± | partially restored | 1.3% ± |  |  |  |  |  |  |  |  |  |  |  |  |  | 
6 | [Zn+2] [Zn^2+, zinc] | inhibited | relatively insensitive | 54% ± | partially restored | 6.6% ± |  |  |  |  |  |  |  |  |  |  |  |  |  | 
